Assay results published in patent US9120893B1, “Alkoxy polycarbonates, bisphenol monomers and methods of making and using the same” (SABIC Global Technologies B.V., priority 2014, dated 2015).

Experiments:
[1] = biological target: recombinant human estradiol receptors (rhER) beta 1 (β1) (Homo sapiens, UniProt Q92731); assay: in vitro competitive binding assay, displacement of radiolabeled 17b-estradiol, rhER beta 1; conditions: result in words; highest concentration 2.5×E-4 M
[2] = biological target: T1, recombinant human estradiol receptors (rhER) alpha (α) (Homo sapiens, UniProt P03372); assay: in vitro competitive binding assay, displacement of radiolabeled 17b-estradiol, rhER alpha; conditions: result in words; highest concentration 2.5×E-4 M
T1 sequence (P03372 1-595): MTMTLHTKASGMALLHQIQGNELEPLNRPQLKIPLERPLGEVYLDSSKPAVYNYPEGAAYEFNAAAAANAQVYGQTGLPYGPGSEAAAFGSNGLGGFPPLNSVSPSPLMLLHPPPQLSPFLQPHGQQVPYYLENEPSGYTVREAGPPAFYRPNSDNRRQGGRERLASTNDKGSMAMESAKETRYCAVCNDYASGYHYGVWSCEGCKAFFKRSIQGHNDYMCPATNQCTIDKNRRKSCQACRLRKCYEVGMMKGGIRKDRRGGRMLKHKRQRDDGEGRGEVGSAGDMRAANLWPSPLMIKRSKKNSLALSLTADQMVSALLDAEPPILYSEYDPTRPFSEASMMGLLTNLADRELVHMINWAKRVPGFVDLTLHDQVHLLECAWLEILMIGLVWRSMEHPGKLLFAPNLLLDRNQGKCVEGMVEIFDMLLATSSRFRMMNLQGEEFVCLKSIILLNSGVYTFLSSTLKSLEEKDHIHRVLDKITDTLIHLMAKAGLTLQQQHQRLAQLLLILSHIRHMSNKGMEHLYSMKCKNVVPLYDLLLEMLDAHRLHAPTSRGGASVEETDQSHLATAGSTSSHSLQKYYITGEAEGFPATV

Chain of recombinant human estradiol receptors (rhER) beta 1 (β1) (Q92731 whole entry): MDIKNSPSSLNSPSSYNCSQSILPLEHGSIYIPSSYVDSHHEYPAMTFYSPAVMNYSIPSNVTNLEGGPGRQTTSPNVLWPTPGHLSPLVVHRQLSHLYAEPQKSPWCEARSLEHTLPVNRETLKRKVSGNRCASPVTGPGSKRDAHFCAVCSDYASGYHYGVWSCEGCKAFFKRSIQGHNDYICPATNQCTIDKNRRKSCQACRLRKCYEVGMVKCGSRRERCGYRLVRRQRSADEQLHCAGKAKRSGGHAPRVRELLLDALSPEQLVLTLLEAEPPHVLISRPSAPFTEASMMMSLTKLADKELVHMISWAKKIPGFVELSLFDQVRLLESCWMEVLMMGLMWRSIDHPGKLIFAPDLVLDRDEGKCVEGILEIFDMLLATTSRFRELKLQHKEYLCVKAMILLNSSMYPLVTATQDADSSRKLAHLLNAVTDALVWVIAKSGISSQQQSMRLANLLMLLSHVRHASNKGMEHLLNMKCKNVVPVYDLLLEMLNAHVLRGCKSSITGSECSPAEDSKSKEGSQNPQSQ

`COc1cc(C(C)(C)c2ccc(O)c(OC)c2)ccc1O` [compound 1, 4,4′ (2,2′-isoPropylidene)-Bis(ortho Methoxy)Phenol (PBMP)] was tested, and the “estradiol binding activity, beta receptor binding” value [1] was “no estradiol binding activity” and the “estradiol binding activity, alpha receptor binding” value [2] was “no estradiol binding activity”.
